In US20230115176A1 (Ra Pharmaceuticals, Inc., priority 2019, published 2023):
In brackets after ≈: the same amount, converted by molar mass.

What was measured:
[1] = biological target: human C5 complement protein (Homo sapiens, UniProt P01031); assay: Surface plasmon resonance (SPR), immobilized human C5, 37° C. (Example 18, Table 24); format: binding; conditions: lowest value obtained where a range of concentrations was analyzed
[2] = Kinetic solubility in PBS pH 7.4, HPLC-UV (Example 21, Table 27); format: physicochemical; conditions: phosphate buffered saline, aqueous buffer, kinetic from dmso stock, 0.5 M PBS, shaken minimum 24 h at approximately 25° C., HPLC-UV 270 nm
Summary of the method: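 10 mM DMSO stock diluted into 0.05 M PBS pH 7.4 (5% DMSO final), in triplicate, shaken ≥24 h at ~25 °C, then filtered by centrifugation. Supernatant concentration by HPLC-UV at 270 nm against external DMSO standards (15.6–500.0 μM).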

Human C5 = biological target: T1, Human C5 (Homo sapiens, UniProt P01031); assay: Red blood cell (RBC) hemolysis assay, luminescent (Example 24, Table 29); format: cell-based; conditions: sheep EA cells, […] C5-depleted human serum, 0.5 nM human C5, 1 hour at 37° C., luminescence (Table 29)
T1 construct: purchased Complement Technology
Text: Numbers in parenthesis following the compound number indicate alternate enantiomers (as distinguished by retention time during chromatographical separation).

Sequence of human C5 complement protein (P01031 19-1676): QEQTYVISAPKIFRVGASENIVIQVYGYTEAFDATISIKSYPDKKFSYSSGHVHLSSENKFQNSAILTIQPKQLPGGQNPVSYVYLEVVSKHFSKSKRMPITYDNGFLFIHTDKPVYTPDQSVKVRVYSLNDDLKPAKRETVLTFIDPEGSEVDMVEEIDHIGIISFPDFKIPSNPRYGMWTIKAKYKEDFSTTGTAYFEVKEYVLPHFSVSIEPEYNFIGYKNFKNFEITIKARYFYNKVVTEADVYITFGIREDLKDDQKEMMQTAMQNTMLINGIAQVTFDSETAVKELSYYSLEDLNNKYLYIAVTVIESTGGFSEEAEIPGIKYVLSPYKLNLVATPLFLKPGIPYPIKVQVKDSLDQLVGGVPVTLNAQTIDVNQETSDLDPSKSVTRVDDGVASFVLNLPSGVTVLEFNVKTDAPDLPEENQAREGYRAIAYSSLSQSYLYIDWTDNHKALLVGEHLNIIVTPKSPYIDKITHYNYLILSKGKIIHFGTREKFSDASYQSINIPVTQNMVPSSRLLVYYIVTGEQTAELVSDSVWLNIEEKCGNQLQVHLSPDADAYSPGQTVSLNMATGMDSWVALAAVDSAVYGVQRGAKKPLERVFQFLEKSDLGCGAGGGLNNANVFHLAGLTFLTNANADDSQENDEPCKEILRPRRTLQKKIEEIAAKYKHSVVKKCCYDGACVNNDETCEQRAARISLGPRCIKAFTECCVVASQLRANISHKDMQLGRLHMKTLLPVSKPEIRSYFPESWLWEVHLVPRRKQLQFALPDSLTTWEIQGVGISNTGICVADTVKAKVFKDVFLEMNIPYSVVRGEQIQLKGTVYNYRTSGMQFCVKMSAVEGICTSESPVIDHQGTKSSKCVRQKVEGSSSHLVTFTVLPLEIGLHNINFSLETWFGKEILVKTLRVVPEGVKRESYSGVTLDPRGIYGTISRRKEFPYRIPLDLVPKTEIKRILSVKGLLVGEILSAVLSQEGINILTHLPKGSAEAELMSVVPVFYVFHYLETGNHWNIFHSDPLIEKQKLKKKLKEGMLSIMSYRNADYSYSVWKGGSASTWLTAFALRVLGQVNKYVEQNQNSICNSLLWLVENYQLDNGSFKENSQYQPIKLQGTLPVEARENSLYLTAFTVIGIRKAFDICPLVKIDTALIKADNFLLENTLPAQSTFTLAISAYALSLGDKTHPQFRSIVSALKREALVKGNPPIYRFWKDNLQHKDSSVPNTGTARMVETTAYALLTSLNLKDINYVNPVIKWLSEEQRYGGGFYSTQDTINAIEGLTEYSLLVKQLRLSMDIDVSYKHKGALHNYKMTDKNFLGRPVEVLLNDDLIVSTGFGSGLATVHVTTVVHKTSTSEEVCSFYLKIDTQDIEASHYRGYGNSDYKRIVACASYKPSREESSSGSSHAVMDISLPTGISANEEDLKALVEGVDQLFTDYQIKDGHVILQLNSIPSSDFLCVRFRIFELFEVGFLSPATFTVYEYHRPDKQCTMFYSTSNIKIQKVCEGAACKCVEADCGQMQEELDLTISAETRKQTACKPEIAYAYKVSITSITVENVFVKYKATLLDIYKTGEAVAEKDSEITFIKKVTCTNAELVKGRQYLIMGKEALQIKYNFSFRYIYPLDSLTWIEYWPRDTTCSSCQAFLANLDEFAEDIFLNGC
T1 sequence (P01031 19-1676): as above

SMILES | Kd [1] | solubility kinetic [2] | IC50 (Human C5)
COc1ccc(N2CCCN(Cc3cccc4c3c(Cl)cn4CC(=O)N(C)C)C2=O)cc1OCCC[C@H]1C[C@H]1C (racemic) [CU0515] | 0.32 nM | < 10 µM | –
COc1ccc(N2CCCN(Cc3ccnc4c3c(Cl)cn4CC(=O)N(C)C)C2=O)cc1OCCC[C@H]1C[C@H]1C (racemic) [CU0516] | 0.15 nM | 30 µM (≈ 17 µg/mL) | –
COc1ccc(N2CCCN(Cc3cccc4c3c(Cl)cn4CC(=O)N(C)C)C2=O)cc1OCCC[C@H]1C[C@@H]1C (racemic) [CU0524] | 0.038 nM | < 10 µM | –
COc1ccc(N2CCCN(Cc3cccc4c3ccn4CC(=O)N(C)C)C2=O)cc1OCCC[C@H]1C[C@@H]1C (racemic) [CU0681] | 2.19 nM | – | –
COc1ccc(N2CCCN(Cc3ccnc4c3ccn4CC(=O)N(C)C)C2=O)cc1OCCC[C@H]1C[C@H]1C (racemic) [CU0737] | 8.1 nM | – | –
CCCCCOc1cc(N2CCCN(Cc3ccnc4c3c(Cl)cn4CC(=O)NOC)C2=O)ccc1OC [CU0500] | 1.2 nM | 10 µM (≈ 5.44 µg/mL) | –
COc1ccc(N2CCCN(Cc3ccnc4c3c(Cl)cn4CC(=O)N(C)C)C2=O)cc1OCCCC(F)(F)C(F)(F)F [CU0502] | 0.32 nM | – | –
CCCCCOc1cc(N2CCCN(Cc3ccnc4c3c(Cl)cn4CC(=O)N3CC[C@H](OC)C3)C2=O)ccc1OC [CU0504] | 0.254 nM | – | –
CCCCCOc1cc(N2CCCN(Cc3cccc4c3c(I)cn4CC(=O)N(C)C)C2=O)ccc1OC [CU0508] | 0.009 nM | – | –
CCCCCOc1cc(N2CCCN(Cc3ccnc4c3c(Cl)cn4CC(=O)N3CCOC3)C2=O)ccc1OC [CU0509] | 0.069 nM | – | –
CCCCCOc1cc(N2CCCN(Cc3ccnc4c3c(Cl)cn4CC(=O)N(C)O)C2=O)ccc1OC [CU0514] | 0.093 nM | – | –
CCCCCOc1cc(N2CCCN(Cc3ccnc4c3c(Cl)cn4CC(=O)N3CCO[C@@H](CN(C)C)C3)C2=O)ccc1OC [CU0519] | 0.291 nM | – | –
CCCCCOc1cc(N2CCCN(Cc3ccnc4c3c(Cl)cn4CC(=O)N(C)OC)C2=O)ccc1OC [CU0527] | 0.041 nM | – | –
CCCCCOc1cc(N2CCCN(Cc3ccnc4c3c(Cl)cn4CC(=O)N(C)CCC#N)C2=O)ccc1OC [CU0528] | 0.057 nM | 50 µM (≈ 29.1 µg/mL) | –
COc1ccc(N2CCCN(Cc3ccnc4c3c(Cl)cn4CC(=O)N(C)C)C2=O)cc1OCCCC1CC1 [CU0530] | 0.051 nM | – | –
CCCCCOc1cc(N2CCCN(Cc3ccnc4c3c(I)cn4CC(=O)N(C)C)C2=O)ccc1OC [CU0535] | 0.053 nM | – | –
COc1cc(CNC(=O)c2cocn2)ccc1CN1CCCN(c2ccc(OC)c(OCCCC3CC3)c2)C1=O [CU0537] | 0.039 nM | – | –
CCCCCOc1cc(N2CCCN(Cc3ccnc4c3c(Cl)cn4CC(=O)NC3COC3)C2=O)ccc1OC [CU0540] | 0.158 nM | < 10 µM | –
CCCCCOc1cc(N2CCCN(Cc3ccnc4c3c(Cl)cn4CC(=O)N3CCCC3)C2=O)ccc1OC [CU0541] | 0.31 nM | 61 µM (≈ 34.7 µg/mL) | –
CCCCCOc1cc(N2CCCN(Cc3cccc4c3c(Br)cn4CC(=O)N(C)C)C2=O)ccc1OC [CU0543] | 0.016 nM | 256 µM (≈ 150 µg/mL) | –
COc1cc(CC(=O)N2CCOC(CN(C)C)C2)ccc1CN1CCCN(c2ccc(OC)c(OCCCC3CC3)c2)C1=O (stereo not shown) [CU0550] | 0.031 nM | 455 µM (≈ 277 µg/mL) | –

SMILES | Kd [1] | solubility kinetic [2] | IC50 (Human C5)
CCCCCOc1cc(N2CCCN(Cc3ccnc4c3c(Cl)cn4CC(=O)NC3CCOC3)C2=O)ccc1OC (stereo not shown) [CU0561] | 0.14 nM | – | –
COc1cc(CC(=O)N2CCNC(=O)C2)ccc1CN1CCCN(c2ccc(OC)c(OCCCC3CC3)c2)C1=O [CU0562] | 0.498 nM | 480 µM (≈ 271 µg/mL) | –
COc1cc(CNC(=O)c2cocn2)ccc1CN1CCCN(c2ccc(OC)c(OCCCC3CCC3)c2)C1=O [CU0565] | 0.024 nM | – | –
CCCCCOc1cc(N2CCCN(Cc3ccnc4c3c(Cl)cn4CC(=O)NC3(C)COC3)C2=O)ccc1OC [CU0567] | 0.118 nM | < 10 µM | –
COc1cc(CNC(=O)c2cocn2)ccc1CN1CCCN(c2ccc(OC)c(OCCCCC3CC3)c2)C1=O [CU0571] | 0.481 nM | – | –
C#CC(C)NC(=O)Cn1cc(Cl)c2c(CN3CCCN(c4ccc(OC)c(OCCCCC)c4)C3=O)ccnc21 (stereo not shown) [CU0572] | 0.074 nM | – | –
CCCCCOc1cc(N2CCCN(Cc3ccnc4c3c(Cl)cn4CC(=O)NO)C2=O)ccc1OC [CU0575] | 0.304 nM | – | –
CCCCCOc1cc(N2CCCN(Cc3ccnc4c3c(Cl)cn4CCO)C2=O)ccc1OC [CU0576] | 0.221 nM | – | –
CCCCCOc1cc(N2CCCN(Cc3ccc(CNC(=O)c4ccco4)cc3OC)C2=O)ccc1OC [CU0597] | 0.115 nM | – | –
COc1cc(CC(=O)N2CCOCC2)ccc1CN1CCCN(c2ccc(OC)c(OCCCC3CC3(F)F)c2)C1=O (stereo not shown) [CU0601] | 0.133 nM | – | –
CCCCCOc1cc(N2CCCN(Cc3ccc(CNC4CCN(C)C4=O)cc3OC)C2=O)ccc1OC (stereo not shown) [CU0626] | 1.04 nM | – | –
CCCCCOc1cc(N2CCCN(Cc3ccc(CC(=O)N4CCCC4C)cc3OC)C2=O)ccc1OC (stereo not shown) [CU0632] | 0.88 nM | – | –
COc1cc(CN)ccc1CN1CCCN(c2ccc(OC)c(OCCCC3CC3)c2)C1=O [CU0657] | 1.32 nM | – | –
COc1cc(CCN2CCCC2)ccc1CN1CCCN(c2ccc(OC)c(OCCCC3CC3)c2)C1=O [CU0662] | 1.15 nM | – | –
COc1cc(CCNC(C)=O)ccc1CN1CCCN(c2ccc(OC)c(OCCCC3CC3)c2)C1=O [CU0668] | 2.53 nM | – | –
COc1cc(CNC(=O)OC(C)(C)C)ccc1CN1CCCN(c2ccc(OC)c(OCCCC3CC3)c2)C1=O [CU0669] | 0.041 nM | – | –
COc1cc(CN)ccc1CN1CCCN(c2ccc(OC)c(OCCCCC3CC3)c2)C1=O [CU0686] | 0.618 nM | – | –
CCCCCOc1cc(N2CCCN(Cc3ccc(CCN4[C@H](C)CC[C@@H]4C)cc3OC)C2=O)ccc1OC [CU0690] | 1.69 nM | – | –
CCCCCOc1cc(N2CCCN(Cc3ccc(CCNC(C)=O)cc3OC)C2=O)ccc1OC [CU0695] | 1.35 nM | – | –
COc1cc(CCN2CCCC2)ccc1CN1CCCN(c2ccc(OC)c(OCCCC3CCC3)c2)C1=O [CU0699] | 0.078 nM | – | –
CCCCCOc1cc(N2CCCN(Cc3ccc(CCNC=O)cc3OC)C2=O)ccc1OC [CU0704] | 2.32 nM | – | –

SMILES | Kd [1] | solubility kinetic [2] | IC50 (Human C5)
COc1cc(CN)ccc1CN1CCCN(c2ccc(OC)c(OCCCC3CCC3)c2)C1=O [CU0708] | 0.018 nM | – | –
COc1cc(CCN2CCCC2)ccc1CN1CCCN(c2ccc(OC)c(OCCCCC3CC3)c2)C1=O [CU0718] | 0.245 nM | – | –
CCCCCOc1cc(N2CC(C(=O)N3CCOCC3)CN(Cc3cc(F)ccc3OC)C2=O)ccc1OC (stereo not shown) [SC0051] | – | – | 111 nM
CCCCCOc1cc(N2CC(CNC(=O)c3cnco3)CN(Cc3cc(F)ccc3OC)C2=O)ccc1OC (stereo not shown) [SC0053] | – | – | 24.2 nM
CCCCCOc1cc(N2CC(CNC(=O)c3ccccn3)CN(Cc3cc(F)ccc3OC)C2=O)ccc1OC (stereo not shown) [SC0054] | – | – | 34.8 nM
CCCCCOc1cc(N2CC(CNC(=O)C(=O)N(C)C)CN(Cc3cc(F)ccc3OC)C2=O)ccc1OC (stereo not shown) [SC0055] | – | – | 38.2 nM
CCCCCOc1cc(N2CC(CNC(=O)COC)CN(Cc3cc(F)ccc3OC)C2=O)ccc1OC (stereo not shown) [SC0056] | – | – | 42.5 nM
CCCCCOc1cc(N2CC(CNC(=O)c3ccnn3C)CN(Cc3cc(F)ccc3OC)C2=O)ccc1OC (stereo not shown) [SC0057] | – | – | 47.5 nM
CCCCCOc1cc(N2CC(O)CN(Cc3cc(F)ccc3OC)C2=O)ccc1OC (stereo not shown) [SC0058] | – | – | 50.8 nM
CCCCCOc1cc(N2CC(C(=O)O)CN(Cc3cc(F)ccc3OC)C2=O)ccc1OC (stereo not shown) [SC0059] | – | – | 57.7 nM
C=C1CN(Cc2ccc(Br)cc2OC)C(=O)N(c2ccc(OC)c(OCCCCC)c2)C1 [SC0062] | – | – | 173 nM
CCCCCOc1cc(N2C(=O)CN(Cc3cc(F)ccc3OC)C2=O)ccc1OC [SC0063] | – | – | 985 nM
CCCCCOc1cc(N2CC3(CC3)CN(Cc3ccnc4c3ccn4CC(=O)N(C)C)C2=O)ccc1OC [SC0065] | – | – | 39 nM
CCCCCOc1cc(N2CC3(CN(C(=O)OCC)C3)CN(Cc3cc(F)ccc3OC)C2=O)ccc1OC [SC0067] | – | – | 59 nM
CCCCCOc1cc(N2CC3(CN(Cc4cc(F)ccc4OC)C2=O)CC3(F)F)ccc1OC (stereo not shown) [SC0068] | – | – | 77.2 nM
CCCCCOc1cc(N2CC3(COC3)CN(Cc3ccnc4c3ccn4CC(=O)N(C)C)C2=O)ccc1OC [SC0069] | – | – | 129 nM
CCCCCOc1cc(N2CC3(CNC3)CN(Cc3cc(F)ccc3OC)C2=O)ccc1OC [SC0070] | – | – | 398 nM
CCCCCOc1cc(N2CC3(CN(Cc4cc(F)ccc4OC)C2=O)CN(S(=O)(=O)c2ccc(C)cc2)C3)ccc1OC [SC0071] | – | – | 870 nM
CCCCCOc1cc(N2C[C@@H](CO)CN(Cc3cc(F)ccc3OC)C2=O)ccc1OC [SC0072] | – | – | 14.2 nM

The next lines start with results.

Kd [1] | solubility kinetic [2] | SMILES | IC50 (Human C5)
– | 66 µM (≈ 36.1 µg/mL) | CCCCCOc1cc(N2CC[C@H](C)N(Cc3cccc4c3ccn4CC(=O)N3CCCC3)C2=O)ccc1OC [SC0001] | 8.4 nM
– | 111 µM (≈ 67.4 µg/mL) | CCCCCOc1cc(N2CC[C@H](C)N(Cc3cccc4c3ccn4CC(=O)N3CCO[C@H](COC)C3)C2=O)ccc1OC [SC0002] | 8.7 nM
– | 445 µM (≈ 276 µg/mL) | CCCCCOc1cc(N2CC[C@H](C)N(Cc3cccc4c3ccn4CC(=O)N3CCOC(CN(C)C)C3)C2=O)ccc1OC (stereo partly shown) [SC0007] | 13.6 nM
– | 103 µM (≈ 53.6 µg/mL) | CCCCCOc1cc(N2CC[C@H](C)N(Cc3cccc4c3ccn4CC(=O)N(C)C)C2=O)ccc1OC [SC0008] | 18.5 nM
– | 167 µM (≈ 101 µg/mL) | CCCCCOc1cc(N2CC[C@H](C)N(Cc3cccc4c3ccn4CC(=O)N3CCO[C@@H](COC)C3)C2=O)ccc1OC [SC0009] | 18.5 nM
– | 43 µM (≈ 25.1 µg/mL) | CCCCCOc1cc(N2CC[C@H](C)N(Cc3cccc4c3ccn4CC(=O)N(C)c3cccnc3)C2=O)ccc1OC [SC0011] | 25.2 nM
– | 398 µM (≈ 204 µg/mL) | CCCCCOc1cc(N2CC(C)CN(Cc3ccc(CC(=O)N(C)C)cc3OC)C2=O)ccc1OC (stereo not shown) [SC0017] | 28.2 nM
– | < 10 µM | C=C1CN(Cc2cc(F)ccc2OC)C(=O)N(c2ccc(OC)c(OCCCCC)c2)C1 [SC0060] | 22.5 nM
